Tested on: phosphorylation of Ser29 on ATG14, an established target for ULK1, in U2OS cells
Assay: ATG14 phosphorylation (ULK1 target) in U2OS cells (Western blot)
Format: cell-based, human
Settings: read-out: IC50, inhibition of ATG14 (Ser29) phosphorylation
Description: T-Rex U2OS cells carrying a Flp Recombinase Target (FRT) site were generated as described previously and grown in Dulbecco’s Modified Eagle’s Medium (DMEM) supplemented with 10% (v/v) FBS and 1% (v/v) penicillin/streptomycin.
Cells were lysed rapidly in situ on culture plates using ice-cold lysis medium containing phosphatase inhibitors, as described previously.
SDS-PAGE was performed using precast NuPAGE Tris-acetate 3–8% gradient polyacrylamide gels in Tris-acetate running buffer when analyzing ACC, GBF1, or Raptor, or NuPAGE Bis-Tris 4–12% gradient polyacrylamide gels in the MOPS buffer system (ThermoFisher Scientific, Waltham, MA, USA) for other proteins (unless stated otherwise). Proteins were transferred to nitrocellulose membranes using the iBlot 2 system (ThermoFisher Scientific). Membranes were enhanced if necessary using SuperSignal Western Blot Enhancer (ThermoFisher Scientific), then blocked for 1 h in Li-Cor Odyssey blocking buffer. The membranes were probed with the appropriate primary antibody (0.1–1 mg/mL) overnight at 4 °C. […] Protein concentrations were determined by Coomassie Blue binding with bovine serum albumin as a standard. The cellular levels of AMP and ATP were determined via direct perchloric acid extraction from cells, with LC:MS used to estimate the levels of each nucleotide.

Structure (SMILES): CNC(=O)c1ccccc1Oc1nc(Nc2cc(OC)c(OC)c(OC)c2)ncc1Br [SBI-0206965]
- IC50: 67 µM

Reference: paper PMC10778976, “BAY-3827 and SBI-0206965: Potent AMPK Inhibitors That Paradoxically Increase Thr172 Phosphorylation” (International Journal of Molecular Sciences, 2023)
